Experimental findings from patent US9402839B2, “Selective targeting agents for mitochondria” (University of Pittsburgh—Of the Commonwealth System of …, priority 2006, dated 2016) are described below.

Data set [1] deals with phospholipids in intestinal mucosa. As to the kind of experiment: Assay for peroxidation of phospholipids in gut mucosa after hemorrhagic shock. To be noted: intraluminal 10 μM, 2 h HS. It is filed as in vivo, rat. How it is done: (§1) After 2 h of shock, the animals were euthanized with an intracardiac KCl bolus injection. The ileum was rapidly excised from the ileocecal valve to the most proximal gut segment. The tips of each segment were discarded. In order to assay caspases 3 and 7 activity and phospholipids peroxidation, mucosa samples were collected from gut segments immediately after hemorrhage and stored at −80° C. For permeability measurements, each segment was converted into an everted gut sac, as previously described by Wattanasirichaigoon et al., see Wattanasirichaigoon, S. et al., Effect of mesenteric ischemia and reperfusion or hemorrhagic shock on intestinal mucosal permeability and ATP content in rats, SHOCK, 12:127-133 (1999).
Assay for peroxidation of phospholipids. Gut mucosal samples were homogenized. Lipids were extracted from homogenates using the Folch procedure, see M. Lees and G. H. Sloan-Stanley, A simple method for isolation and purification of total lipids from animal tissue, J. BIOL. CHEM. 226:497-509 (1957), and resolved by 2D HPTLC (High Performance Thin Layer Chromatography) as previously described, see Kagan, V. E. et al., A role for oxidative stress in apoptosis: Oxidation and externalization of phosphatidylserine is required for macrophage clearance of cell undergoing Fas-mediated apoptosis, J. IMMUMOL. 169:487-489 (2002). Spots of phospholipids were scraped from HPTLC plates and phospholipids were extracted from silica. Lipid phosphorus was determined by a micro-method, see Bottcher, C. J. F. et al., A rapid and sensitive sub-micro phosphorus determination, ANAL. CHIM. ACTA 24: 203-204 (1961).
Oxidized phospholipids were hydrolyzed by pancreatic phospholipase A2 (2 U/μl) in 25 mM phosphate buffer containing 1 mM CaCl2, 0.5 mM EDTA and 0.5 mM sodium dodecyl sulfate (SDS) (pH 8.0, at room temperature for 30 min). Fatty acid hydroperoxides formed were determined by fluorescence HPLC of resorufin stoichiometrically formed during their microperoxidase 11-catalized reduction in presence of Amplex Red (for 40 min at 4° C.) (8). Fluorescence HPLC (ECLIPSE XDB-C18 column, 5 μm, 150×4.6 mm, mobile phase was composed of 25 mM disodium phosphate buffer (pH 7.0)/methanol (60:40 v/v); excitation wavelength 560 nm, emission wavelength 590 nm) was performed on a SHIMADZU LC-100AT HPLC system equipped with fluorescence detector (RF-10Ax1) and autosampler (SIL-10AD).
In the subsequent series of in vivo studies, the affect of intraluminal XJB-5-131 on hemorrhage-induced peroxidation of phospholipids in intestinal mucosa was examined. […] In a preferred embodiment, 0.3 mL of test solution filled the lumen of each ileal compartment. […]

Data set [2] relates to rat ileal mucosal permeability. As to the kind of experiment: Intestinal mucosal permeability assay (FD4 clearance, everted gut sacs) after pressure-controlled hemorrhagic shock. The class given is in vivo. To be noted: intraluminal. The procedure:
Intestinal mucosal permeability assay. Animals were allowed access to water but not food for 24 h prior to the experiment in order to decrease the volume of intestinal contents. The rats were instrumented as described above.
A midline laparotomy was performed and the small intestine was exteriorized from the duodenojejunal junction to the ileocecal valve. A small incision was made on the antimesenteric aspect of the proximal small intestine and saline solution (1.5 ml) was injected. The bowel was ligated proximally and distally to the incision with 4-0 silk (LOOK, Reading, Pa.).
The small intestine was compressed gently in aboral direction along its length to displace intestinal contents into the colon. Starting 5 cm from the ileocecal valve, the ileum was partitioned into six contiguous water-tight segments. Each segment was 3 cm long and was bounded proximally and distally by constricting circumferential 4-0 silk sutures. Care was taken to ensure that the vascular supply to intestine was not compromised, and each segment was well-perfused.
Two randomly selected segments in each rat were injected with 0.3 ml of vehicle and served as “no treatment” controls. In order to fill the segments, a small incision was made and the solution was injected using a Teflon catheter (ABBOCATH 16Ga, ABBOTT LABORATORIES).
The remaining four other segments were injected with solutions containing either 4-hydroxy-2,2,6,6-tetramethylpiperidine-N-oxyl (TEMPOL) or one of the Gramicidin S-based compounds. Four different final concentrations of TEMPOL in normal saline were evaluated: 0.1, 1, 5 and 20 mM. The hemigramicidin-based compounds were dissolved in a mixture of dimethylsulfoxide (DMSO) and normal saline (1:99 v/v) and injected at final concentrations of 0.1, 1, 10 or 100 μM.
After the segments were loaded with saline or the test compounds, the bowel was replaced inside the peritoneal cavity and the abdominal incision was temporarily closed using Backhaus forceps.
After a 5 min stabilization period, hemorrhagic shock was induced by withdrawing blood via the jugular catheter. MAP was maintained at 30±3 mm Hg for 2 hours. The shed blood was re-infused as needed to maintain MAP within the desired range.
as §1
Briefly, as per the Wattanasirichaigoon protocol referenced above, the sacs were prepared in ice-cold modified Krebs-Henseleit bicarbonate buffer (“KHBB”), pH 7.4. One end of the gut segment was ligated with a 4-0 silk suture; the segment was then everted onto a thin plastic rod. The resulting gut sac was mounted on a Teflon catheter (Abbocath 16GA, Abbot Laboratories) connected to a 3 ml plastic syringe containing 1.5 ml of KHBB. The sac was suspended in a beaker containing KHBB plus fluorescein-isothiocyanate labeled dextran (average molecular mass 4 kDa; FD4; 0.1 mg/ml). This solution was maintained at 37° C., and oxygenated by bubbling with a gas mixture (O2 95%/CO2 5%). After 30 min, the fluid within the gut sac was collected. The samples were cleared by centrifugation at 2000 g for 5 min.
Fluorescence of FD4 in the solution inside the beaker and within each gut sac was measured using a fluorescence spectrophotometer (LS-50, PERKIN-ELMER, Palo Alto, Calif.) at an excitation wavelength of 492 nm and an emission wavelength of 515 nm. […]

In data set [3] the test system is mouse embryonic cells (MEC). The class given is cell-based. The procedure:
Electron paramagnetic resonance (“EPR”) spectroscopy was used to monitor the cellular delivery of compounds 5a and 5b shown in FIG. 2 in mouse embryonic cells (“MEC”).
The following conditions were used during the EPR-based analysis of the integration and reduction of nitroxide Gramicidin S-peptidyl conjugates in MECs. The MECs at a concentration of 10 million MECs per mL were incubated with 10 μM of 4-AT and compound 5a, respectively. Recovered nitroxide radicals in whole cells, mitochondria, and cytosol fractions were resuspended in phosphate buffer saline (“PBS”) in the presence and absence, respectively, of 2 μM K3Fe(CN)6.

Regarding `CC(C)C[C@@H](/C=C/[C@H](Cc1ccccc1)C(=O)N1CCC[C@H]1C(=O)N[C@H](C(=O)N[C@@H](CCCNC(=O)OCc1ccccc1)C(=O)NC1CC(C)(C)N([O])C(C)(C)C1)C(C)C)NC(=O)OC(C)(C)C` [XJB-5-131], in data set [1], the “hemorrhage-induced peroxidation of cardiolipin (CL)” value was “significantly ameliorated”, the “peroxidation of phosphatidylcholine (PC)” value is on record as “no effect”, the “peroxidation of phosphatidylethanolamine (PE)” value was “small effect” and the “peroxidation of phosphatidylserine (PS)” value is recorded as “no effect”. Also, the “lowest effective concentration against ileal mucosal hyperpermeability” value in data set [2] is 1 µM. In addition, the “protection against hemorrhagic shock-induced ileal mucosal hyperpermeability” value in data set [2] (0.1-100 μM, 2 h shock) is “significantly ameliorated”. For the same compound, the “potency relative to TEMPOL” value in data set [2] (gut mucosal protection) is reported as roughly 1000 fold. The “hemorrhagic shock-induced mucosal hyperpermeability relative to control value” in data set [2] (control segments loaded with vehicle) was “approximately 60%”. Besides, the “EPR triplet signals of nitroxide radicals in MECs and in mitochondria isolated from these cells” value in data set [3] (10 μM, no EPR signal in the cytosolic fraction) is “Distinctive characteristic triplet signals of nitroxide radicals were detected”. Besides, in data set [3] (10 μM, with and without K3Fe(CN)6), the “integration and one-electron reduction in MECs (EPR signal increase upon ferricyanide)” value was “resulted in integration and one-electron reduction”. In addition, in data set [3] (after incubation with solutions of the compounds), the “concentration in the mitochondria of cultured mouse embryonic cells” value is reported as “concentrated in the mitochondria”.
